± gives the standard deviation of the averaged measurements.
What was measured:
Assay in all cases: level (log10 ratio to DMSO vehicle control); higher = higher biomarker level / cell amount than vehicle control
[1] = compound: O=S(=O)(O)C(F)(F)C(F)(F)C(F)(F)C(F)(F)C(F)(F)C(F)(F)C(F)(F)F [Perfluoroheptanesulfonic acid] (in DMSO)
Description: (§1)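 BioMAP Diversity Plus panel of 12 human primary cell co-culture systems (3C, 4H, LPS, SAg, BT, BF4T, BE3C, CASM3C, HDF3CGF, KF3CT, MyoF, Mphg). Compounds were added 1 h before stimulation and left for 24 h (MyoF 48 h; BT 72 h for soluble read-outs or 6 d for IgG). Biomarkers were read by ELISA, cytotoxicity by SRB, PBMC viability and proliferation by Alamar Blue. Each well value was divided by the mean of 8 DMSO control wells on the same plate and log10 transformed; duplicate blinded samples were tested at 4 concentrations.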

[2] = compound: O=C(O)C(F)(F)OC(F)(F)C(F)(F)OC(F)(F)C(F)(F)OC(F)(F)C(F)(F)C(F)(F)C(F)(F)F [Perfluoro-3,6,9-trioxatridecanoic acid] (in DMSO); details: 6700 nM
Description: as §1

[3] = compound: O=S(=O)(O)C(F)(F)C(F)(F)OC(F)(F)C(F)(F)F [Perfluoro(2-ethoxyethane)sulfonic acid] (in DMSO)
Description: as §1

[4] = compound: CO[Si](C)(CCC(F)(F)C(F)(F)C(F)(F)C(F)(F)C(F)(F)C(F)(F)F)OC [Dimethoxymethyl((perfluorohexyl)ethyl)silane] (in DMSO)
Description: as §1

[5] = compound: CCOC(=O)CC(=O)C(F)(F)C(F)(F)F [Ethyl pentafluoropropionyl acetate] (in DMSO)
Description: as §1

[6] = compound: O=C(O)C(F)(OC(F)(F)C(F)(F)C(F)(F)F)C(F)(F)F [Ammonium perfluoro-2-methyl-3-oxahexanoate] (in Water)
Description: as §1

[7] = compound: OCCC(F)(F)C(F)(F)C(F)(F)C(F)(F)F [4:2 Fluorotelomer alcohol] (in DMSO)
Description: as §1

Test System	level (log10) ([1]; 1500 nM)	level (log10) ([1]; 4400 nM)	level (log10) ([1]; 13000 nM)	level (log10) ([1]; 40000 nM)	level (log10) [2]	level (log10) ([3]; 6700 nM)	level (log10) ([3]; 20000 nM)	level (log10) ([3]; 60000 nM)	level (log10) ([4]; 6700 nM)	level (log10) ([4]; 20000 nM)	level (log10) ([5]; 6700 nM)	level (log10) ([5]; 20000 nM)	level (log10) ([5]; 60000 nM)	level (log10) ([6]; 6700 nM)	level (log10) ([6]; 20000 nM)	level (log10) ([6]; 60000 nM)	level (log10) ([7]; 6700 nM)	level (log10) ([7]; 20000 nM)	level (log10) ([7]; 60000 nM)
BF4T:SRB	0.0075 ± 0.018	-0.008 ± 0.0014	-0.0125 ± 0.0021	-0.016 ± 0.021	-0.038 ± 0.013	0.0045 ± 0.015	0.001 ± 0.0099	0.004 ± 0.018	-0.0055 ± 0.005	-0.0045 ± 0.005	-0.004	-0.0045 ± 0.0035	-0.002 ± 0.0057	-0.003 ± 0.013	0 ± 0.0014	0.0135 ± 0.022	-0.0075 ± 0.00071	-0.0105 ± 0.0078	-0.0045 ± 0.012
BT:sTNF-alpha	-0.022 ± 0.018	-0.043 ± 0.0042	-0.048 ± 0.014	-0.101 ± 0.0099	-0.0035 ± 0.057	-0.002 ± 0.037	-0.012 ± 0.083	0.029 ± 0.058	-0.0935 ± 0.15	0.094 ± 0.11	-0.124 ± 0.17	0.017 ± 0.072	-0.0495 ± 0.07	-0.035 ± 0.037	0.013 ± 0.034	0.0045 ± 0.093	0.126 ± 0.061	0.0895 ± 0.077	0.143 ± 0.14
BE3C:IL-1alpha	0.0275 ± 0.005	0.006	0.001 ± 0.0099	0.039 ± 0.03	-0.469 ± 0.052	0.0015 ± 0.0021	0.0045 ± 0.0035	0.0085 ± 0.005	0.0025 ± 0.018	0.021 ± 0.0071	0.0125 ± 0.03	-0.011 ± 0.044	0.0285 ± 0.005	-0.0215 ± 0.013	-0.001 ± 0.0028	-0.0085 ± 0.005	-0.0425 ± 0.026	-0.0345 ± 0.016	-0.017 ± 0.0085
LPS:CD106/VCAM-1	0.015 ± 0.023	0.009 ± 0.031	-0.0235 ± 0.052	-0.01 ± 0.035	0.001 ± 0.016	0.013 ± 0.034	-0.007 ± 0.033	0.0165 ± 0.049	-0.0105 ± 0.04	0.0095 ± 0.0035	0.004 ± 0.011	-0.0105 ± 0.037	-0.0135 ± 0.026	-0.0285 ± 0.016	-0.016 ± 0.0071	-0.0195 ± 0.011	-0.017 ± 0.014	-0.0145 ± 0.005	0.0075 ± 0.00071
BF4T:CCL2/MCP-1	0.009 ± 0.041	0 ± 0.013	-0.092 ± 0.028	0.016 ± 0.014	-0.155 ± 0.11	0.0155 ± 0.0064	0.0155 ± 0.0064	0.0315 ± 0.039	-0.0175 ± 0.00071	0.01 ± 0.021	-0.006 ± 0.011	-0.0145 ± 0.00071	-0.0015 ± 0.0078	0.007 ± 0.031	0.005 ± 0.048	0.0285 ± 0.021	0.0035 ± 0.073	-0.0015 ± 0.021	0.0275 ± 0.005
4H:VEGFR2	0.023 ± 0.041	-0.013 ± 0.0085	-0.005 ± 0.044	0.043 ± 0.1	-0.0515 ± 0.047	0.009 ± 0.086	0.028 ± 0.057	0.0365 ± 0.12	-0.023	-0.001 ± 0.027	-0.0375 ± 0.036	-0.0265 ± 0.06	-0.022 ± 0.15	0.0035 ± 0.04	0.007 ± 0.014	0.0095 ± 0.018	-0.071 ± 0.035	-0.021 ± 0.033	-0.0205 ± 0.0064
LPS:CD141/Thrombomodulin	0.028 ± 0.011	-0.0075 ± 0.026	0.006 ± 0.03	-0.0065 ± 0.023	-0.015 ± 0.0028	0.067 ± 0.0085	0.057 ± 0.055	0.051 ± 0.072	0.024 ± 0.034	0.006 ± 0.016	0.0635 ± 0.016	0.0625 ± 0.012	0.077 ± 0.055	-0.013 ± 0.031	-0.0025 ± 0.0092	-0.036 ± 0.028	-0.037 ± 0.034	0.0025 ± 0.03	-0.005 ± 0.02
LPS:CD62E/E-Selectin	0.0155 ± 0.015	-0.0065 ± 0.0035	-0.0075 ± 0.026	0.0095 ± 0.042	-0.024 ± 0.0057	0.0105 ± 0.022	0.0215 ± 0.019	0.0275 ± 0.0078	0.0135 ± 0.011	0.01 ± 0.0099	0.015 ± 0.0085	0.0055 ± 0.018	0.0095 ± 0.039	-0.0115 ± 0.0078	-0.005 ± 0.016	-0.004 ± 0.0085	0.002 ± 0.023	-0.0195 ± 0.012	-0.0045 ± 0.03
SAg:CXCL8/IL-8	0.0205 ± 0.12	-0.04 ± 0.075	-0.001 ± 0.045	0.0455 ± 0.047	-0.023 ± 0.011	0.0225 ± 0.057	0.0465 ± 0.016	0.0945 ± 0.0035	-0.0085 ± 0.012	0.0145 ± 0.018	-0.023 ± 0.016	-0.0475 ± 0.032	-0.007 ± 0.085	0.103 ± 0.0085	0.099 ± 0.0085	0.167 ± 0.047	-0.017 ± 0.0071	-0.018 ± 0.016	0.018 ± 0.034
LPS:CD69	-0.01 ± 0.025	-0.006 ± 0.0057	-0.004 ± 0.025	-0.015 ± 0.061	0.013 ± 0.0014	0.0305 ± 0.04	-0.007 ± 0.027	-0.023 ± 0.068	-0.046 ± 0.013	-0.0265 ± 0.0092	-0.02 ± 0.013	-0.048 ± 0.02	-0.021 ± 0.072	0.03 ± 0.0028	0 ± 0.028	-0.0315 ± 0.04	-0.0295 ± 0.025	-0.0135 ± 0.015	-0.0105 ± 0.025
SAg:CD62E/E-Selectin	0.0035 ± 0.043	-0.03 ± 0.018	0.0025 ± 0.00071	0.0435 ± 0.0035	-0.019 ± 0.057	0.0015 ± 0.0021	0.001 ± 0.0071	0.033 ± 0.018	-0.0185 ± 0.019	0.0235 ± 0.0035	-0.0005 ± 0.018	-0.006 ± 0.0028	0.004 ± 0.033	0.036 ± 0.0014	0.022 ± 0.013	0.057 ± 0.0028	-0.0125 ± 0.011	-0.001 ± 0.011	0.025 ± 0.016
SAg:Proliferation	0.0105 ± 0.026	0.0125 ± 0.029	-0.024 ± 0.037	0.0325 ± 0.019	-0.0295 ± 0.042	-0.0725 ± 0.012	-0.048 ± 0.025	-0.038 ± 0.024	0.051 ± 0.048	-0.004 ± 0.13	0.001 ± 0.065	-0.004 ± 0.025	0.0315 ± 0.047	-0.0005 ± 0.028	-0.043 ± 0.028	-0.0265 ± 0.049	-0.041 ± 0.042	-0.033 ± 0.0071	-0.0025 ± 0.032
SAg:PBMC Cytotoxicity	0.026 ± 0.016	-0.022 ± 0.033	-0.0335 ± 0.00071	0.01 ± 0.033	-0.003 ± 0.037	-0.025 ± 0.038	0.0045 ± 0.0092	0.0085 ± 0.0021	-0.0045 ± 0.012	0.019 ± 0.0057	-0.0055 ± 0.032	-0.005 ± 0.025	-0.0015 ± 0.021	-0.011 ± 0.013	-0.024 ± 0.013	-0.0035 ± 0.0064	-0.021 ± 0.023	-0.0085 ± 0.0021	-0.0095 ± 0.005

Source: the supplement of paper PMC10331698
